Measurements published in US11851411B2, “Herbicidal compounds” (SYNGENTA CROP PROTECTION AG, priority 2018, dated 2023).

What was measured:
Assay type in all cases: in vivo
Setaria faberi (SETFA) [1] = assay: Glasshouse herbicide test, post-emergence; conditions: POST Application; 500 g/h; evaluated after 13 days
Procedure: (§1) Seeds of a variety of test species are shown in standard soil in pots (Lolium perenne (LOLPE), Amaranthus retoflexus (AMARE), Abutilon theophrasti (ABUTH), Setaria faberi (SETFA), Echinochloa crus-galli (ECHCG), Ipomoea hederacea (IPOHE)). After cultivation for one day (pre-emergence) or after 8 days cultivation (post-emergence) under controlled conditions in a glasshouse (at 24/16° C., day/night; 14 hours light; 65% humidity), the plants are sprayed with an aqueous spray solution derived from the formulation of the technical active ingredient in acetone/water (50:50) solution containing 0.5% Tween 20 (polyoxyethelyene sorbitan monolaurate, CAS RN 9005-64-5). Compounds are applied at 500 g/h. The test plants are then grown in a glasshouse under controlled conditions in a glasshouse (at 24/16° C., day/night; 14 hours light; 65% humidity) and watered twice daily. After 13 days for pre and post-emergence, the test is evaluated for the percentage damage caused to the plant. The biological activities are shown in the following table on a five point scale (5=80-100%; 4=60-79%; 3=40-59%; 2=20-39%; 1=0-19%).

[2] = system: Echinochloa crus-galli (ECHCG); assay: Glasshouse herbicide test, post-emergence; conditions: POST Application; 500 g/h; evaluated after 13 days
Procedure: as §1

[3] = system: Amaranthus retoflexus (AMARE); assay: Glasshouse herbicide test, post-emergence; conditions: POST Application; 500 g/h; evaluated after 13 days
Procedure: as §1

[4] = system: Abutilon theophrasti (ABUTH); assay: Glasshouse herbicide test, post-emergence; conditions: POST Application; 500 g/h; evaluated after 13 days
Procedure: as §1

[5] = system: Ipomoea hederacea (IPOHE); assay: Glasshouse herbicide test, post-emergence; conditions: POST Application; 500 g/h; evaluated after 13 days
Procedure: as §1

Setaria faberi (SETFA) [6] = assay: Glasshouse herbicide test, pre-emergence; conditions: PRE Application; 500 g/h; evaluated after 13 days
Procedure: as §1

[7] = system: Echinochloa crus-galli (ECHCG); assay: Glasshouse herbicide test, pre-emergence; conditions: PRE Application; 500 g/h; evaluated after 13 days
Procedure: as §1

[8] = system: Amaranthus retoflexus (AMARE); assay: Glasshouse herbicide test, pre-emergence; conditions: PRE Application; 500 g/h; evaluated after 13 days
Procedure: as §1

[9] = system: Abutilon theophrasti (ABUTH); assay: Glasshouse herbicide test, pre-emergence; conditions: PRE Application; 500 g/h; evaluated after 13 days
Procedure: as §1

[10] = system: Ipomoea hederacea (IPOHE); assay: Glasshouse herbicide test, pre-emergence; conditions: PRE Application; 500 g/h; evaluated after 13 days
Procedure: as §1

Row | SMILES | percentage damage caused to the plant, five point scale, SETFA (Setaria faberi (SETFA) [1]) | percentage damage caused to the plant, five point scale, ECHCG [2] | percentage damage caused to the plant, five point scale, AMARE [3] | percentage damage caused to the plant, five point scale, ABUTH [4] | percentage damage caused to the plant, five point scale, IPOHE [5] | percentage damage caused to the plant, five point scale, SETFA (Setaria faberi (SETFA) [6]) | percentage damage caused to the plant, five point scale, ECHCG [7] | percentage damage caused to the plant, five point scale, AMARE [8] | percentage damage caused to the plant, five point scale, ABUTH [9] | percentage damage caused to the plant, five point scale, IPOHE [10]
1 | CON(C(C)=O)c1c(S(C)(=O)=O)ccc(C(=O)Nc2nnnn2C)c1Cl [Compound 1.007] | 5 (5=80-100%) | 5 (5=80-100%) | 5 (5=80-100%) | 5 (5=80-100%) | 5 (5=80-100%) | 3 (3=40-59%) | 5 (5=80-100%) | 5 (5=80-100%) | 5 (5=80-100%) | 5 (5=80-100%)
2 | CCn1nnnc1NC(=O)c1ccc(S(C)(=O)=O)c(N(OC)C(C)=O)c1Cl [Compound 1.008] | 5 (5=80-100%) | 5 (5=80-100%) | 5 (5=80-100%) | 5 (5=80-100%) | 5 (5=80-100%) | 5 (5=80-100%) | 5 (5=80-100%) | 5 (5=80-100%) | 5 (5=80-100%) | 5 (5=80-100%)
3 | CCCn1nnnc1NC(=O)c1ccc(S(C)(=O)=O)c(N(OC)C(C)=O)c1Cl [Compound 1.009, 3-[acetyl(methoxy)amino]-2-chloro-4-methylsulfonyl-N-(1-propyltetrazol-5-yl)benzamide] | 5 (5=80-100%) | 5 (5=80-100%) | 5 (5=80-100%) | 5 (5=80-100%) | 5 (5=80-100%) | 4 (4=60-79%) | 5 (5=80-100%) | 5 (5=80-100%) | 5 (5=80-100%) | 5 (5=80-100%)
4 | CON(C(=O)OC(C)(C)C)c1c(C(F)(F)F)ccc(C(=O)Nc2nnnn2C)c1Cl [Compound 1.025] | 5 (5=80-100%) | 5 (5=80-100%) | 5 (5=80-100%) | 5 (5=80-100%) | 5 (5=80-100%) | 5 (5=80-100%) | 5 (5=80-100%) | 5 (5=80-100%) | 5 (5=80-100%) | 5 (5=80-100%)
5 | CON(C(=O)OC(C)(C)C)c1c(S(C)(=O)=O)ccc(C(=O)Nc2nnnn2C)c1Cl [Compound 1.031] | 5 (5=80-100%) | 5 (5=80-100%) | 5 (5=80-100%) | 5 (5=80-100%) | 5 (5=80-100%) | 5 (5=80-100%) | 5 (5=80-100%) | 5 (5=80-100%) | 5 (5=80-100%) | 5 (5=80-100%)
6 | CON(C)c1c(C(F)(F)F)ccc(C(=O)Nc2nnnn2C)c1Cl [Compound 1.037] | 5 (5=80-100%) | 5 (5=80-100%) | 5 (5=80-100%) | 5 (5=80-100%) | 5 (5=80-100%) | 5 (5=80-100%) | 5 (5=80-100%) | 5 (5=80-100%) | 5 (5=80-100%) | 5 (5=80-100%)
7 | CCn1nnnc1NC(=O)c1ccc(S(C)(=O)=O)c(N(C)OC)c1Cl [Compound 1.044] | 5 (5=80-100%) | 5 (5=80-100%) | 5 (5=80-100%) | 5 (5=80-100%) | 5 (5=80-100%) | 5 (5=80-100%) | 5 (5=80-100%) | 5 (5=80-100%) | 5 (5=80-100%) | 5 (5=80-100%)
8 | CCCn1nnnc1NC(=O)c1ccc(S(C)(=O)=O)c(N(C)OC)c1Cl [Compound 1.045] | 5 (5=80-100%) | 5 (5=80-100%) | 5 (5=80-100%) | 5 (5=80-100%) | 5 (5=80-100%) | 5 (5=80-100%) | 5 (5=80-100%) | 5 (5=80-100%) | 5 (5=80-100%) | 5 (5=80-100%)
9 | CON(C(=O)C(C)C)c1c(C(F)(F)F)ccc(C(=O)Nc2nnnn2C)c1Cl [Compound 1.049] | 5 (5=80-100%) | 5 (5=80-100%) | 5 (5=80-100%) | 5 (5=80-100%) | 5 (5=80-100%) | 5 (5=80-100%) | 5 (5=80-100%) | 5 (5=80-100%) | 5 (5=80-100%) | 5 (5=80-100%)
10 | CCC(=O)N(OC)c1c(C(F)(F)F)ccc(C(=O)Nc2nnnn2C)c1Cl [Compound 1.050] | 5 (5=80-100%) | 5 (5=80-100%) | 5 (5=80-100%) | 5 (5=80-100%) | 5 (5=80-100%) | 5 (5=80-100%) | 5 (5=80-100%) | 5 (5=80-100%) | 5 (5=80-100%) | 4 (4=60-79%)
